In patent publication US8853420B2, “Compounds” (Boehringer Ingelheim International GmbH, priority 2008, dated 2014):

Biological target: T1, Xenopus laevis Aurora B/INCENP complex (Xenopus laevis, UniProt Q6DE08)
T1 construct: equipped at the N-terminal position with a GST tag (amino acids 60-361); GST (N, cleaved yes); made in house; host or cells: E. coli BL21 (DE3)
Assay: Aurora-B kinase assay (radioactive enzyme inhibition assay)
Format: biochemical
Settings: test substance at 1 μM; percentage of the positive control (maximum value without test substance)
Excerpt: Example Aurora-B Kinase Assay
A radioactive enzyme inhibition assay was developed using E. coli-expressed recombinant Xenopus laevis Aurora B wild-type protein equipped at the N-terminal position with a GST tag (amino acids 60-361) in a complex with Xenopus laevis INCENP (amino acids 790-847), which is obtained from bacteria and purified. In equivalent manner a Xenopus laevis Aurora B mutant (G96V) in a complex with Xenopus laevis INCENP^790-847 may also be used.
Expression and Purification
The coding sequence for Aurora-B^60-361 from Xenopus laevis is cloned into a modified version of pGEX-6T (Amersham Biotech) via BamHI and SalI cutting sites. The vector contains two cloning cassettes which are separated by a ribosomal binding site, allowing bi-cistronic expression. In this configuration Xenopus laevis Aurora B is expressed by the first cassette, and the Xenopus laevis INCENP^790-847 is expressed by the second cassette. The resulting vector is pAUB-IN^847.
First of all the E. coli strain BL21 (DE3) is co-transformed with pUBS520 helper plasmid and pAUB-IN^847, after which protein expression is induced using 0.3 mM IPTG at an OD600 of 0.45-0.7. The expression is then continued for approx. 12-16 h at 23-25° C. with agitation.
The bacteria are then removed by centrifuging and the pellet is lysed in lysis buffer (50 mM Tris/Cl pH 7.6, 300 mM NaCl, 1 mM DTT, 1 mM EDTA, 5% glycerol, Roche Complete Protease Inhibitor tablets) using ultrasound, using 20-30 mL lysis buffer per liter of E. coli culture. The lysed material is freed from debris by centrifugation (12000 rpm, 45-60 min, JA20 rotor). The supernatant is incubated with 300 μL of equilibrated GST Sepharose Fast Flow (Amersham Biosciences) per liter of E. coli culture for 4-5 h at 4° C. Then the column material is washed with 30 volumes of lysis buffer and then equilibrated with 30 volumes of cleavage buffer (50 mM Tris/Cl pH 7.6, 150 mM NaCl, 1 mM DTT, 1 mM EDTA). To cleave the GST tag from Aurora B, 10 units of Prescission Protease (Amersham Biosciences) are used per milligram of substrate and the mixture is incubated for 16 h at 4° C. The supernatant which contains the cleavage product is loaded onto a 6 mL Resource Q column (Amersham Biosciences) equilibrated with ion exchange buffer (50 mM Tris/Cl pH 7.6, 150 mM NaCl, 1 mM DTT, 1 mM EDTA). The Aurora B/INCENP complex is caught as it flows through, then concentrated and loaded onto a Superdex 200 size exclusion chromatography (SEC) column equilibrated with SEC buffer (10 mM Tris/Cl pH 7.6, 150 mM NaCl, 1 mM DTT, 1 mM EDTA). Fractions which contain the AuroraB/INCENP complex are collected and concentrated using Vivaspin concentrators (molecular weight exclusion 3000-5000 Da) to a final concentration of 12 mg/mL. Aliquots (e.g. 240 ng/μL) for kinase assays are transferred from this stock solution into freezing buffer (50 mM Tris/Cl pH 8.0, 150 mM NaCl, 0.1 mM EDTA, 0.03% Brij-35, 10% glycerol, 1 mM DTT) and stored at −80° C.
Test substances are placed in a polypropylene dish (96 wells, Greiner #655 201), in order to cover a concentration frame of 10 μM-0.0001 μM. The final concentration of DMSO in the assay is 5%. 30 μL of protein mix (50 mM tris/Cl pH 7.5, 25 mM MgCl2, 25 mM NaCl, 167 μM ATP, 10 ng Xenopus laevis Aurora B/INCENP complex in freezing buffer) are pipetted into the 10 μl of test substance provided in 25% DMSO and this is incubated for 15 min at RT. Then 10 μL of peptide mix (100 mM tris/Cl pH 7.5, 50 mM MgCl2, 50 mM NaCl, 5 μM NaF, 5 μM DTT, 1 μCi gamma-P33-ATP [Amersham], 50 μM substrate peptide [biotin-[…] or multimers thereof, or biotin-[…] or multimers thereof, or biotin-[…]]) are added. The reaction is incubated for 75 min (ambient temperature) and stopped by the addition of 180 μL of 6.4% trichloroacetic acid and incubated for 20 min on ice. […]

T1 sequence (Q6DE08 60-361): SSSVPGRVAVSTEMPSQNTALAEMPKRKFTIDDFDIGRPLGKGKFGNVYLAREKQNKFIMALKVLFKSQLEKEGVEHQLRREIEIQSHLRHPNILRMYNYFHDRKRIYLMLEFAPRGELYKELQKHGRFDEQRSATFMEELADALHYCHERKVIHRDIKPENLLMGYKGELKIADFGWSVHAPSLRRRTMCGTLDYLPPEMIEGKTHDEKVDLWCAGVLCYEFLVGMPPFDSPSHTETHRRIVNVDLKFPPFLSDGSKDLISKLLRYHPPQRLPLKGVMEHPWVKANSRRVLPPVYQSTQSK
T1 sequence (O13024 790-847 partner limits assumed): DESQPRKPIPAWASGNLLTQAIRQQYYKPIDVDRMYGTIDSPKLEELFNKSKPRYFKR

Row | SMILES | remaining activity at 1 µM
1 | CC(C)Nc1ccc(-c2ccc3c(c2)NC(=O)/C3=C(\Nc2ccc(C(=O)N3CCN(C4CC4)CC3)cc2)c2ccccc2)cn1 [Example 126] | 5.84%
2 | CC(C)Nc1ccc(-c2ccc3c(c2)NC(=O)/C3=C(\Nc2ccc(C(=O)N3CCC[C@H]3CN3CCCC3)cc2)c2ccccc2)cn1 [Example 127] | 4.67%
3 | CC(C)Nc1ccc(-c2ccc3c(c2)NC(=O)/C3=C(\Nc2ccc(C(=O)N3CCC(N(C)C)CC3)cc2)c2ccccc2)cn1 [Example 128] | 4.34%
4 | CC(C)Nc1ccc(-c2ccc3c(c2)NC(=O)/C3=C(\Nc2ccc(C(=O)N3CCN(C4CCOCC4)CC3)cc2)c2ccccc2)cn1 [Example 129] | 4.55%
5 | CC(C)Nc1ccc(-c2ccc3c(c2)NC(=O)/C3=C(\Nc2ccc(C(=O)N3CCC[C@@H]3CN3CCCC3)cc2)c2ccccc2)cn1 [Example 130] | 1.43%
6 | CC(C)Nc1ccc(-c2ccc3c(c2)NC(=O)/C3=C(\Nc2ccc(C(=O)N3C[C@H]4C[C@@H]3CN4C)cc2)c2ccccc2)cn1 [Example 131] | 5.48%
7 | CC(C)Nc1ccc(-c2ccc3c(c2)NC(=O)/C3=C(\Nc2ccc(C(=O)N3CCN[C@@H](C)C3)cc2)c2ccccc2)cn1 [Example 133] | 0.55%
8 | CC(C)Nc1ccc(-c2ccc3c(c2)NC(=O)/C3=C(\Nc2ccc(C(=O)NCCN(C)C)cc2)c2ccccc2)cn1 [Example 134] | 1.43%
9 | CC(C)Nc1ccc(-c2ccc3c(c2)NC(=O)/C3=C(\Nc2ccc(C(=O)N3CCN(C)CC3)cc2)c2ccccc2)cn1 [Example 135] | 0.77%
10 | CC(C)Nc1ccc(-c2ccc3c(c2)NC(=O)/C3=C(\Nc2ccc(C(=O)N3CC[C@H](N(C)C)C3)cc2)c2ccccc2)cn1 [Example 136] | 0.48%
11 | CC(C)Nc1ccc(-c2ccc3c(c2)NC(=O)/C3=C(\Nc2ccc(C(=O)N3CC[C@@H](N(C)C)C3)cc2)c2ccccc2)cn1 [Example 137] | 0.67%
12 | CC(C)Nc1ccc(-c2ccc3c(c2)NC(=O)/C3=C(\Nc2ccc(C(=O)N(C)CCN(C)C)cc2)c2ccccc2)cn1 [Example 138] | 0.68%
13 | CC(C)Nc1ccc(-c2ccc3c(c2)NC(=O)/C3=C(\Nc2ccc(C(=O)N(C)C3CCN(C)CC3)cc2)c2ccccc2)cn1 [Example 139] | 0.88%
14 | CC(C)Nc1ccc(-c2ccc3c(c2)NC(=O)/C3=C(\Nc2ccc(C(=O)NC3CCN(C)CC3)cc2)c2ccccc2)cn1 [Example 140] | 2.26%
15 | CNC(=O)C#Cc1cc2c(cc1S(=O)(=O)c1ccc(F)cc1)/C(=C(/Nc1ccc(CN(C)C)cc1)c1ccccc1)C(=O)N2 [Example 151] | 1.89%
16 | CCNC(=O)C#Cc1cc2c(cc1S(=O)(=O)N1CC(F)(F)C1)/C(=C(/Nc1ccc(N3CCN(C)CC3)cc1)c1ccccc1)C(=O)N2 [Example 152] | 4.33%
17 | CNCC#Cc1cc2c(cc1S(=O)(=O)N1CC(F)(F)C1)/C(=C(/Nc1ccccc1)c1ccccc1)C(=O)N2 [Example 153] | 1.2%
18 | CN1CCN(c2ccc(N/C(=C3\C(=O)Nc4cc(C#CC(=O)NC5CCC5)c(S(=O)(=O)N5CCC(F)(F)C5)cc43)c3ccccc3)cc2)CC1 [Example 154] | 2.62%
19 | CN(C)Cc1ccc(N/C(=C2\C(=O)Nc3cc(C#CC(=O)NC4CCC4)c(F)cc32)c2ccccc2)cc1 [Example 155] | 8.61%
20 | CC(C)NC(=O)C#Cc1cc2c(cc1S(=O)(=O)N1CC(F)(F)C1)/C(=C(/Nc1ccc(N3CCN(C)CC3)cc1)c1ccccc1)C(=O)N2 [Example 156] | 3.02%
21 | CNCC#Cc1cc2c(cc1S(=O)(=O)c1ccc(F)cc1)/C(=C(/Nc1ccccc1)c1ccccc1)C(=O)N2 [Example 157] | 1.98%

Row | SMILES | remaining activity at 1 µM
22 | CNC(=O)C#Cc1cc2c(cc1F)/C(=C(/Nc1ccc(CN(C)C)cc1)c1ccccc1)C(=O)N2 [Example 158] | 7.53%
23 | CN(C)Cc1ccc(N/C(=C2\C(=O)Nc3cc(C#CC(=O)NC4CC4)ccc32)c2ccccc2)cc1 [Example 159] | 2.07%
24 | CCNC(=O)C#Cc1ccc2c(c1)NC(=O)/C2=C(\Nc1ccc(N2CCN(C)CC2)cc1)c1ccccc1 [Example 160] | 1.39%
25 | CN(C)Cc1ccc(N/C(=C2\C(=O)Nc3cc(C#CC(=O)Nc4ccccc4)ccc32)c2ccccc2)cc1 [Example 161] | 1.69%
26 | CCNC(=O)C#Cc1ccc2c(c1)NC(=O)/C2=C(\Nc1ccc(CN(C)C)cc1)c1ccccc1 [Example 162] | 1.65%
27 | CN(C)Cc1ccc(N/C(=C2\C(=O)Nc3cc(C#CC(=O)NC4CCCC4)ccc32)c2ccccc2)cc1 [Example 163] | 2.08%
28 | CN1CCN(c2ccc(N/C(=C3\C(=O)Nc4cc(C#CC(=O)NC5CCCC5)ccc43)c3ccccc3)cc2)CC1 [Example 164] | 3.17%
29 | CN(C)Cc1ccc(N/C(=C2\C(=O)Nc3cc(C#CC(=O)NC4CCC4)ccc32)c2ccccc2)cc1 [Example 165] | 2.4%
30 | CN(C)Cc1ccc(N/C(=C2\C(=O)Nc3cc(C#CC(=O)NCCO)ccc32)c2ccccc2)cc1 [Example 166] | 1.93%
31 | CN(C)Cc1ccc(N/C(=C2\C(=O)Nc3cc(C#CC(=O)NCC(F)F)ccc32)c2ccccc2)cc1 [Example 167] | 2.96%
32 | O=C(C#Cc1ccc2c(c1)NC(=O)/C2=C(\Nc1ccc(CN2CCCC2)cc1)c1ccccc1)NCC(F)F [Example 168] | 1.85%
33 | O=C(C#Cc1ccc2c(c1)NC(=O)/C2=C(\Nc1ccc(CN2CCCC2)cc1)c1ccccc1)NCCF [Example 169] | 1.71%
34 | O=C(C#Cc1ccc2c(c1)NC(=O)/C2=C(\Nc1ccc(CN2CCCC2)cc1)c1ccccc1)Nc1ccccc1F [Example 170] | 1.39%
35 | C[C@H](CO)NC(=O)C#Cc1ccc2c(c1)NC(=O)/C2=C(\Nc1ccc(CN(C)C)cc1)c1ccccc1 [Example 171] | 3.39%
36 | C[C@H](CO)NC(=O)C#Cc1ccc2c(c1)NC(=O)/C2=C(\Nc1ccc(CN2CCCC2)cc1)c1ccccc1 [Example 172] | 3.21%
37 | O=C(C#Cc1ccc2c(c1)NC(=O)/C2=C(\Nc1ccc(CN2CCCC2)cc1)c1ccccc1)Nc1cccc(Cl)c1 [Example 173] | 3.68%
38 | O=C(C#Cc1ccc2c(c1)NC(=O)/C2=C(\Nc1ccc(CN2CCCC2)cc1)c1ccccc1)Nc1ccccc1 [Example 174] | 2.67%
39 | CCNC(=O)C#Cc1ccc2c(c1)NC(=O)/C2=C(\Nc1ccc(CN2CCCC2)cc1)c1ccccc1 [Example 175] | 3.04%
40 | CCNC(=O)C#Cc1ccc2c(c1)NC(=O)/C2=C(\Nc1ccc(CN(C)C)c(F)c1)c1ccccc1 [Example 176] | 1.65%
41 | CCNC(=O)C#Cc1ccc2c(c1)NC(=O)/C2=C(\Nc1ccc(CN(C)C)c(Cl)c1)c1ccccc1 [Example 177] | 1.83%
